Assay results taken from PMC10616807, “3′-O-β-Glucosyl-4′,5′-didehydro-5′-deoxyadenosine Is a Natural Product of the Nucleocidin Producers Streptomyces virens and Streptomyces calvus” (Journal of Natural Products, 2023).

Tested on: T1, NucGT
T1 construct: glucosyltransferase enzyme
Assay: HPLC product assay at […] nm, initial rates, Michaelis-Menten fit
Assay type: biochemical, Streptomyces calvus
Conditions: 17.7 mM UDP-glucose (saturating), 100 mM MgCl2, 50 mM Tris-HCl pH 7.8, 37 °C

C=C1O[C@@H](n2cnc3c(N)ncnc32)[C@H](O)[C@@H]1O [compound 12, 4′,5′-didehydro-5′-deoxyadenosine]
Km: 365 ± 6 µM

Nc1ncnc2c1ncn2[C@@H]1O[C@H](CO)[C@@H](O)[C@H]1O [adenosine]
Km: 487 ± 53 µM
